Reference: ChEMBL document CHEMBL1133158, “Beta-carbonyl substituted glutathione conjugates as inhibitors Of O. volvulus GST2” (Bioorg Med Chem Lett, 2000)

What was measured:
[1] = target: Glutathione S-transferase P (Homo sapiens, UniProt P09211); experiment: Inhibitory activity against human Glutathione S-transferase P
[2] = Selectivity of compound for piGST to that of OvGST2

Chain of Glutathione S-transferase P (P09211 whole entry): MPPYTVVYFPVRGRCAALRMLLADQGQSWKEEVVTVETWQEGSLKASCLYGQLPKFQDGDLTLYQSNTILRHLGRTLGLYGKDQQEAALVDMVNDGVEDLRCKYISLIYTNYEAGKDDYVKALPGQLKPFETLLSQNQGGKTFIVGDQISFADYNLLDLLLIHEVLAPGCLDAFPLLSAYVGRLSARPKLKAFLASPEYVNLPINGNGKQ

Structure (SMILES)	IC50 [1]	Selectivity [2]
CCCC(CC(C)=O)SCC(NC(=O)CCC(N)C(=O)O)C(=O)NCC(=O)O (stereo unspecified)	8.1 µM	1.3
CCC(=O)CC(C)SCC(NC(=O)CCC(N)C(=O)O)C(=O)NCC(=O)O (stereo unspecified)	217 µM	
NC(CCC(=O)NC(CSC1CCCC(=O)C1)C(=O)NCC(=O)O)C(=O)O (stereo unspecified)	> 250 µM	> 1.1
COC(=O)CC(SCC(NC(=O)CCC(N)C(=O)O)C(=O)NCC(=O)O)C(=O)OC (stereo unspecified)	208 µM	
CCC(CC(C)=O)SCC(NC(=O)CCC(N)C(=O)O)C(=O)NCC(=O)O (stereo unspecified)	5.2 µM	
CC(=O)CC(SCC(NC(=O)CCC(N)C(=O)O)C(=O)NCC(=O)O)C(C)C (stereo unspecified)	> 250 µM	
NC(CCC(=O)NC(CSC(CC(=O)O)C(=O)O)C(=O)NCC(=O)O)C(=O)O (stereo unspecified)	> 250 µM	> 13.9
CC(=O)CC(SCC(NC(=O)CCC(N)C(=O)O)C(=O)NCC(=O)O)c1ccccc1 (stereo unspecified)	155 µM	
CCCCOC(=O)CC(SCC(NC(=O)CCC(N)C(=O)O)C(=O)NCC(=O)O)C(=O)O (stereo unspecified)	40.3 µM	0.8
CC(C)C(=O)CC(SCC(NC(=O)CCC(N)C(=O)O)C(=O)NCC(=O)O)c1ccccc1 (stereo unspecified)	> 250 µM	> 7.8
CCCOC(=O)CC(SCC(NC(=O)CCC(N)C(=O)O)C(=O)NCC(=O)O)C(=O)OCCC (stereo unspecified)	> 250 µM	
